Results taken from patent US7767659B2, “Synthesis of naturally occurring ecteinascidins and related compounds” (Pharma Mar, S.A., priority 2002, dated 2010).
Read-outs that look alike come from different tables or passages of the source.

Key:
[1] = tested on: LoVo; experiment: cells; conditions: Homo sapiens, LoVo, 48 h
Method in brief: (§1)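 Colorimetric SRB read (490 nm) on triplicate wells after 48 h at 37 °C, 5% CO2. Dose range 10 to 10^−8 μg/ml; 5×10^3 cells/well pre-attached 18 h.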

[2] = tested on: HT-29; experiment: cells; conditions: Homo sapiens, HT-29, 48 h
Method in brief: as §1

[3] = tested on: A-549; experiment: cells; conditions: Homo sapiens, A549, 48 h
Method in brief: as §1

[4] = tested on: SK-BR-3; experiment: Inhibition of cells growth by colorimetric assay (SRB); conditions: Homo sapiens, SK-BR-3, 48 h
Method in brief: as §1

[5] = tested on: HeLa; experiment: as above; conditions: Homo sapiens, HeLa, 48 h
Method in brief: as §1

[6] = tested on: HeLa-APL; experiment: as above; conditions: Homo sapiens, 48 h
Method in brief: as §1

[7] = tested on: IGROV-1; experiment: as above; conditions: Homo sapiens, IGROV-1, 48 h
Method in brief: as §1

[8] = tested on: DU-145; experiment: as above; conditions: Homo sapiens, DU-145, 48 h
Method in brief: as §1

[9] = tested on: IGROV-ET; experiment: as above; conditions: Homo sapiens, 48 h
Method in brief: as §1

[10] = tested on: PANC-1; experiment: as above; conditions: Homo sapiens, PANC-1, 48 h
Method in brief: as §1

[11] = tested on: K-562; experiment: as above; conditions: Homo sapiens, K562, 48 h
Method in brief: as §1

[12] = tested on: LNCaP; experiment: as above; conditions: Homo sapiens, LNCaP, 48 h
Method in brief: as §1

[13] = tested on: SK-MEL-28; experiment: as above; conditions: Homo sapiens, SK-MEL-28, 48 h
Method in brief: as §1

[14] = tested on: LoVo-Dox; experiment: as above; conditions: Homo sapiens, 48 h
Method in brief: as §1

## C=CCN1[C@@H]2c3c(cc(C)c(OC)c3O)C[C@H]1[C@H](C#N)N1C2[C@@H]2SCC(N)C(=O)OC[C@H]1c1c3c(c(C)c(OC(C)=O)c12)OCO3 (stereo partly drawn) [compound 12]
[1]; read-out: GI50 LOVO
  GI50: 399 nM
[1]; read-out: LC50 LOVO
  CC50: 3210 nM
[1]; read-out: TGI LOVO
  IC (TGI): 808 nM
[2]; read-out: GI50 HT29
  GI50: 503 nM
[2]; read-out: LC50 HT29
  CC50: 15400 nM
[2]; read-out: TGI HT29
  IC (TGI): 1270 nM
[3]; read-out: GI50 A549
  GI50: 338 nM
[3]; read-out: LC50 A549
  CC50: 1160 nM
[3]; read-out: TGI A549
  IC (TGI): 624 nM
[4]; read-out: GI50 SK-BR3
  GI50: 256 nM
[4]; read-out: LC50 SK-BR3
  CC50: 979 nM
[4]; read-out: TGI SK-BR3
  IC (TGI): 501 nM
[5]; read-out: GI50 HELA
  GI50: 344 nM
[5]; read-out: LC50 HELA
  CC50: 1120 nM
[5]; read-out: TGI HELA
  IC (TGI): 621 nM
[6]; read-out: GI50 HELA-APL
  GI50: 244 nM
[6]; read-out: LC50 HELA-APL
  CC50: 914 nM
[6]; read-out: TGI HELA-APL
  IC (TGI): 472 nM
[7]; read-out: GI50 IGROV
  GI50: 225 nM
[7]; read-out: LC50 IGROV
  CC50: 1050 nM
[7]; read-out: TGI IGROV
  IC (TGI): 486 nM
[8]; read-out: GI50 DU145
  GI50: 535 nM
[8]; read-out: LC50 DU145
  CC50: 4220 nM
[8]; read-out: TGI DU145
  IC (TGI): 1020 nM
[9]; read-out: GI50 IGROV-ET
  GI50: 635 nM
[9]; read-out: LC50 IGROV-ET
  CC50: 3820 nM
[9]; read-out: TGI IGROV-ET
  IC (TGI): 1070 nM
[10]; read-out: GI50 PANC-1
  GI50: 472 nM
[10]; read-out: LC50 PANC-1
  CC50: 4070 nM
[10]; read-out: TGI PANC-1
  IC (TGI): 953 nM
[11]; read-out: GI50 K562
  GI50: 110 nM
[11]; read-out: LC50 K562
  CC50: 15400 nM
[11]; read-out: TGI K562
  IC (TGI): 2510 nM
[12]; read-out: GI50 LNCAP
  GI50: 82.5 nM
[12]; read-out: LC50 LNCAP
  CC50: 711 nM
[12]; read-out: TGI LNCAP
  IC (TGI): 251 nM
[13]; read-out: GI50 MEL-28
  GI50: 350 nM
[13]; read-out: LC50 MEL-28
  CC50: 1030 nM
[13]; read-out: TGI MEL-28
  IC (TGI): 603 nM
[14]; read-out: GI50 LOVO-DOX
  GI50: 504 nM
[14]; read-out: LC50 LOVO-DOX
  CC50: 12200 nM
[14]; read-out: TGI LOVO-DOX
  IC (TGI): 971 nM

## C=CCN1[C@@H]2c3c(cc(C)c(OC)c3O)C[C@H]1[C@H](C#N)N1C2[C@@H]2SC[C@]3(NCCc4cc(OC(=O)OC(C)(C)C)c(OC)cc43)C(=O)OC[C@H]1c1c3c(c(C)c(OC(C)=O)c12)OCO3 (stereo partly drawn) [compound 44]
[1]; read-out: LOVO GI50
  GI50: 33.9 nM
[1]; read-out: LOVO LC50
  CC50: 11100 nM
[1]; read-out: LOVO TGI
  IC (TGI): 143 nM
[2]; read-out: HT29 GI50
  GI50: 38.8 nM
[2]; read-out: HT29 LC50
  CC50: 11100 nM
[2]; read-out: HT29 TGI
  IC (TGI): 1540 nM
[3]; read-out: A549 GI50
  GI50: 27.4 nM
[3]; read-out: A549 LC50
  CC50: 470 nM
[3]; read-out: A549 TGI
  IC (TGI): 56.7 nM
[4]; read-out: SK-BR3 GI50
  GI50: 3.27 nM
[4]; read-out: SK-BR3 LC50
  CC50: 76.1 nM
[4]; read-out: SK-BR3 TGI
  IC (TGI): 11.9 nM
[5]; read-out: HELA GI50
  GI50: 20.2 nM
[5]; read-out: HELA LC50
  CC50: 87.5 nM
[5]; read-out: HELA TGI
  IC (TGI): 42 nM
[6]; read-out: HELA-APL GI50
  GI50: 25 nM
[6]; read-out: HELA-APL LC50
  CC50: 352 nM
[6]; read-out: HELA-APL TGI
  IC (TGI): 59.6 nM
[7]; read-out: IGROV GI50
  GI50: 32.6 nM
[7]; read-out: IGROV LC50
  CC50: 11100 nM
[7]; read-out: IGROV TGI
  IC (TGI): 78 nM
[8]; read-out: DU145 GI50
  GI50: 23.4 nM
[8]; read-out: DU145 LC50
  CC50: 11100 nM
[8]; read-out: DU145 TGI
  IC (TGI): 71.9 nM
[9]; read-out: IGROV-ET GI50
  GI50: 49.2 nM
[9]; read-out: IGROV-ET LC50
  CC50: 11100 nM
[9]; read-out: IGROV-ET TGI
  IC (TGI): 443 nM
[10]; read-out: PANC-1 GI50
  GI50: 75.2 nM
[10]; read-out: PANC-1 LC50
  CC50: 11100 nM
[10]; read-out: PANC-1 TGI
  IC (TGI): 344 nM
[11]; read-out: K562 GI50
  GI50: 7.97 nM
[11]; read-out: K562 LC50
  CC50: 11100 nM
[11]; read-out: K562 TGI
  IC (TGI): 77.9 nM
[12]; read-out: LNCAP GI50
  GI50: 4.53 nM
[12]; read-out: LNCAP LC50
  CC50: 48 nM
[12]; read-out: LNCAP TGI
  IC (TGI): 20.4 nM
[13]; read-out: MEL-28 GI50
  GI50: 23.4 nM
[13]; read-out: MEL-28 LC50
  CC50: 90.1 nM
[13]; read-out: MEL-28 TGI
  IC (TGI): 45.9 nM
[14]; read-out: LOVO-DOX GI50
  GI50: 297 nM
[14]; read-out: LOVO-DOX LC50
  CC50: 11100 nM
[14]; read-out: LOVO-DOX TGI
  IC (TGI): 919 nM
